The text below walks through data of the Biogen ADME set (Fang et al. 2023).

For this data set the following is noted: for aqueous solubility: pH 6.8.

Converted amounts (≈) assume the structure as drawn. A value given as a limit tells only on which side of the number the result lay.

`O=C(NCc1ccc(-n2cncn2)nc1)c1csc2c1CCCC2`: the MDR1-MDCK efflux ratio is 0.992; the intrinsic clearance, human liver microsomes was found to be 22.1 mL/min/kg; the intrinsic clearance, rat liver microsomes worked out at 196 mL/min/kg; the aqueous solubility (as a rule, how much of the substance goes into solution per volume) amounted to 5.3 µg/mL (≈ 15.6 µM).
Take `Cc1noc(C2CCN(CCc3ccccc3)CC2)n1`: the MDR1-MDCK efflux ratio is 0.492; the intrinsic clearance, human liver microsomes was determined as 18 mL/min/kg; the intrinsic clearance, rat liver microsomes came out at 448 mL/min/kg; the aqueous solubility came to 63.8 µg/mL (≈ 235 µM).
For `Cn1cc(C#N)cc1-c1nc(C2CC2)nn1CCc1ccccc1`, the MDR1-MDCK efflux ratio stood at 0.932; the intrinsic clearance, human liver microsomes worked out at 184 mL/min/kg; the intrinsic clearance, rat liver microsomes was 1870 mL/min/kg; the aqueous solubility is 49.2 µg/mL (≈ 155 µM).
Turning to `COc1ncccc1C(=O)Nc1nc(C)nn1C`, the MDR1-MDCK efflux ratio came to 0.585; the intrinsic clearance, human liver microsomes is ≤ 4.74 mL/min/kg; the intrinsic clearance, rat liver microsomes is ≤ 10.7 mL/min/kg.
With `COc1cc2c(cc1OC)CC(=O)N(CCCN(C)C[C@H]1Cc3cc(OC)c(OC)cc31)CC2`, the MDR1-MDCK efflux ratio was determined as 73.8; the fraction unbound, human plasma was found to be 0.538; the fraction unbound, rat plasma was determined as 0.412; the intrinsic clearance, human liver microsomes was 36.7 mL/min/kg. This compound also registered an intrinsic clearance, rat liver microsomes of 163 mL/min/kg and an aqueous solubility of 65.8 µg/mL (≈ 140 µM).
Consider `Cc1cncc(CN2CCC(=C3c4ccc(Cl)cc4CCc4cccnc43)CC2)c1`, for which the MDR1-MDCK efflux ratio is 1.45; the intrinsic clearance, human liver microsomes worked out at 511 mL/min/kg; the intrinsic clearance, rat liver microsomes stood at 1010 mL/min/kg.
Turning to `COc1cc(F)ccc1-c1ncnc(Nc2cccc(C[S@@](C)(=N)=O)c2)n1`, the MDR1-MDCK efflux ratio is 150; the fraction unbound, human plasma is 0.393; the fraction unbound, rat plasma was 0.375; the intrinsic clearance, human liver microsomes was ≤ 4.74 mL/min/kg. In addition, the intrinsic clearance, rat liver microsomes is ≤ 10.7 mL/min/kg and the aqueous solubility was found to be 53.7 µg/mL (≈ 139 µM).
Consider `Cc1sc2nc(CN3CCC(C)CC3)nc(N3CCN(c4cnccn4)CC3)c2c1C`, for which the MDR1-MDCK efflux ratio was determined as 9.31; the intrinsic clearance, human liver microsomes was found to be 228 mL/min/kg; the intrinsic clearance, rat liver microsomes was determined as 1980 mL/min/kg; the aqueous solubility came out at 42 µg/mL (≈ 96 µM).
Regarding `Nc1ccccc1OCCn1ccnc1`, the MDR1-MDCK efflux ratio amounted to 0.815; the intrinsic clearance, human liver microsomes amounted to 7.07 mL/min/kg; the intrinsic clearance, rat liver microsomes stood at 30.6 mL/min/kg; the aqueous solubility was 24.7 µg/mL (≈ 121 µM).
In turn, `CN(c1ncccc1CNc1nc(Nc2ccc3c(c2)CC(=O)N3)ncc1C(F)(F)F)S(C)(=O)=O` came in with an intrinsic clearance, human liver microsomes of 32.2 mL/min/kg; an intrinsic clearance, rat liver microsomes of 94.5 mL/min/kg; an aqueous solubility of 94.4 µg/mL (≈ 186 µM).
The compound `Cc1nccc(-c2cccc(NCC(=O)Nc3ccc(F)cc3)c2)n1` returned an intrinsic clearance, human liver microsomes of 39.1 mL/min/kg and an intrinsic clearance, rat liver microsomes of 304 mL/min/kg.
Consider `Cc1nccc(-c2cccc(NCc3cc(C)on3)c2)n1`, for which the MDR1-MDCK efflux ratio was determined as 0.536; the intrinsic clearance, human liver microsomes worked out at 59.6 mL/min/kg; the intrinsic clearance, rat liver microsomes was determined as 350 mL/min/kg; the aqueous solubility was 46.6 µg/mL (≈ 166 µM).
For `Cc1cccc(-n2cnnc2CCCN2CCOCC2)c1`, in that order: 30.5, ≤ 4.74 mL/min/kg, 98.3 mL/min/kg and 35 µg/mL (≈ 122 µM).
For `Cc1cc(C)n2ncc(C(=O)NC3CCCCC3)c2n1`, the MDR1-MDCK efflux ratio turned out to be 0.702; the intrinsic clearance, human liver microsomes is 55.8 mL/min/kg; the intrinsic clearance, rat liver microsomes stood at 166 mL/min/kg; the aqueous solubility was 4.94 µg/mL (≈ 18.1 µM).
The like results for `COc1ccc(-n2c(Cn3cnc(C#N)n3)nc3ccccc32)cc1` were, in that order, 1.37, 5 mL/min/kg, 664 mL/min/kg and 36 µg/mL (≈ 109 µM).
For `CC1(C)CC(=O)C2=C(C1)NC(=O)CC2c1ccc(Br)cc1` (configuration not stated), the MDR1-MDCK efflux ratio was 3.38; the fraction unbound, human plasma stood at 0.144; the fraction unbound, rat plasma came out at 0.088; the intrinsic clearance, human liver microsomes amounted to 59.6 mL/min/kg. The intrinsic clearance, rat liver microsomes was found to be 247 mL/min/kg.
In the case of `CNC(=O)c1sc2ncccc2c1[C@H]1CC[C@H](CNC(=O)COc2ccccc2)CC1`, the MDR1-MDCK efflux ratio is 31; the intrinsic clearance, human liver microsomes was determined as 103 mL/min/kg; the intrinsic clearance, rat liver microsomes is 1070 mL/min/kg; the aqueous solubility was found to be 91.2 µg/mL (≈ 208 µM).
`O=C1NC2(CCCC2)C(=O)N1Cc1ccccc1F` came in with an aqueous solubility of 44.5 µg/mL (≈ 170 µM).
Take `Cn1ccnc1CNc1cc(Br)ccc1-n1cccn1`: the MDR1-MDCK efflux ratio is 0.841; the intrinsic clearance, human liver microsomes worked out at 31.6 mL/min/kg; the intrinsic clearance, rat liver microsomes is 291 mL/min/kg; the aqueous solubility is 48.6 µg/mL (≈ 146 µM).
On to `CC(C)c1cc(NC(=O)Cn2nc(-c3ccccc3)ccc2=O)[nH]n1`, for which the aqueous solubility stood at 6.51 µg/mL (≈ 19.3 µM).
Take `CC(C)Oc1ccc(CCNC(=O)N2CCC[C@H]2C(=O)N2CCCCC2)cc1`: the MDR1-MDCK efflux ratio stood at 50.9; the intrinsic clearance, human liver microsomes was 19.7 mL/min/kg; the intrinsic clearance, rat liver microsomes came out at 492 mL/min/kg.
For the compound `CCOc1ccc(C(=O)Nc2cnn(C3CCOCC3)c2)cn1`, the MDR1-MDCK efflux ratio worked out at 1.41; the intrinsic clearance, human liver microsomes was ≤ 4.74 mL/min/kg; the intrinsic clearance, rat liver microsomes is 106 mL/min/kg; the aqueous solubility amounted to 39.9 µg/mL (≈ 126 µM).
The like results for `N#CC1(CN2CCc3cc(-c4ccccc4)oc3C2)CC1` were, in that order, 0.273, 72.7 mL/min/kg, 503 mL/min/kg and 30.3 µg/mL (≈ 109 µM).
For `COC(=O)Nc1ccc(Oc2nc3ccccc3o2)cc1`, in that order: 0.543, ≤ 4.74 mL/min/kg, 29.1 mL/min/kg and 22.2 µg/mL (≈ 78.1 µM).
Turning to `COc1ccc(Cl)cc1NC(=O)CN1CCCN(c2ccc(C(F)(F)F)cn2)CC1`, the MDR1-MDCK efflux ratio came to 1.75; the intrinsic clearance, human liver microsomes stood at 453 mL/min/kg; the intrinsic clearance, rat liver microsomes turned out to be 1060 mL/min/kg.
`Cc1cccnc1NC(=O)CCc1ccc(F)cc1` registered an intrinsic clearance, human liver microsomes of 6.88 mL/min/kg; an intrinsic clearance, rat liver microsomes of 764 mL/min/kg; an aqueous solubility of 38.1 µg/mL (≈ 147 µM).
`OC1CCN(c2ncc(-c3cnccn3)c(-c3cccs3)n2)CC1`: the MDR1-MDCK efflux ratio was found to be 1.14; the intrinsic clearance, human liver microsomes came to 7.01 mL/min/kg; the intrinsic clearance, rat liver microsomes is ≤ 10.7 mL/min/kg; the aqueous solubility worked out at 47.9 µg/mL (≈ 141 µM).
As to `CNC(=O)c1ccc(N2CCCc3cc(OC)ccc3C2)nn1`, the MDR1-MDCK efflux ratio worked out at 0.886; the intrinsic clearance, human liver microsomes came out at 11.8 mL/min/kg; the intrinsic clearance, rat liver microsomes stood at 860 mL/min/kg.
Regarding `CN(CC(=O)NC1(C#N)CCCCC1)c1cccc(C#N)c1`, the MDR1-MDCK efflux ratio stood at 10.4; the intrinsic clearance, human liver microsomes amounted to 85.8 mL/min/kg; the intrinsic clearance, rat liver microsomes came to 701 mL/min/kg; the aqueous solubility amounted to 20.3 µg/mL (≈ 68.4 µM).
Consider `NC(=O)CN1CCC(COc2ccccc2C(F)(F)F)CC1`, for which the MDR1-MDCK efflux ratio was 0.524; the intrinsic clearance, human liver microsomes turned out to be 12.9 mL/min/kg; the intrinsic clearance, rat liver microsomes came to 1110 mL/min/kg.
For `CCCCN1CCc2nc3cc(C4CC4)nn3c(O)c2C1`, in that order: 26.5, ≤ 4.74 mL/min/kg and ≤ 10.7 mL/min/kg.
In the case of `CCCc1noc2nc(-c3ccncc3)cc(C(=O)O)c12`, the MDR1-MDCK efflux ratio turned out to be 0.841; the intrinsic clearance, human liver microsomes was ≤ 4.74 mL/min/kg; the intrinsic clearance, rat liver microsomes turned out to be 18.1 mL/min/kg.
For `COCC(=O)Nc1ccc(NC(=O)Cc2ccc(C(F)(F)F)cc2)cc1`, in that order: 1.08, 32.8 mL/min/kg and 88.9 mL/min/kg.
With `C#Cc1cccc(N(CC(=O)NC(N)=O)Cc2cccs2)c1`, the MDR1-MDCK efflux ratio is 2.25; the intrinsic clearance, human liver microsomes came out at 38.5 mL/min/kg; the intrinsic clearance, rat liver microsomes was 1610 mL/min/kg.
The compound `N#Cc1nc(-c2ccccc2)oc1NCc1ccc2c(c1)OCO2` had an intrinsic clearance, human liver microsomes of 208 mL/min/kg and an intrinsic clearance, rat liver microsomes of 707 mL/min/kg.
The like results for `Cc1sc2ncn(Cc3c(F)cccc3Cl)c(=O)c2c1C` were, in that order, 80 mL/min/kg and 757 mL/min/kg.
Turning to `Cc1ccc(/C(N)=N/OC(=O)c2ccc3c(c2)OCCO3)cc1`, the aqueous solubility amounted to 0.33 µg/mL (≈ 1.06 µM).
Turning to `CC(C)n1c(=O)cc(N[C@@H](C)c2ccccc2)[nH]c1=O`, the MDR1-MDCK efflux ratio stood at 58.2; the intrinsic clearance, human liver microsomes is ≤ 4.74 mL/min/kg; the intrinsic clearance, rat liver microsomes came out at 30.4 mL/min/kg.
For `Cn1cc(-c2cccc3c(C(N)=O)cccc23)cn1`, in that order: 1.17, ≤ 4.74 mL/min/kg and 42.6 mL/min/kg.
With `Cc1noc(OCC(=O)N2CCCCCC2)n1`, the MDR1-MDCK efflux ratio came to 1.01; the intrinsic clearance, human liver microsomes is ≤ 4.74 mL/min/kg; the intrinsic clearance, rat liver microsomes is ≤ 10.7 mL/min/kg; the aqueous solubility was 50.2 µg/mL (≈ 210 µM).
Turning to `Cn1cc(CCNC(=O)N2CCc3sccc3C2)cn1`, the MDR1-MDCK efflux ratio was 1.51; the intrinsic clearance, human liver microsomes amounted to 15 mL/min/kg; the intrinsic clearance, rat liver microsomes amounted to 68.4 mL/min/kg; the aqueous solubility turned out to be 40 µg/mL (≈ 138 µM).
`O=C(C1CCCN(c2ccccn2)C1)N1CCc2ccccc2C1` (configuration not stated): the intrinsic clearance, human liver microsomes was 172 mL/min/kg; the intrinsic clearance, rat liver microsomes came to 1520 mL/min/kg; the aqueous solubility is 49.2 µg/mL (≈ 153 µM).
`NC(=O)c1ccc(N2CCCCC2)c(NC(=O)c2ncoc2-c2ccc3ccccc3c2)c1`: the MDR1-MDCK efflux ratio was 0.519 and the aqueous solubility turned out to be 0.24 µg/mL (≈ 0.545 µM).
`Cc1cc(C)c(S(=O)(=O)Nc2ccccc2)c(C)c1` yielded an intrinsic clearance, human liver microsomes of 137 mL/min/kg and an intrinsic clearance, rat liver microsomes of 4160 mL/min/kg.
The like results for `Cc1nc(-c2cccc(C(N)=O)c2)sc1-c1ccc(F)cc1` were, in that order, 18.1 mL/min/kg and 394 mL/min/kg.
`COc1cccc(Oc2ccc(NC(=O)CN3CCCCC3=O)cn2)c1`: the MDR1-MDCK efflux ratio was determined as 13.6; the intrinsic clearance, human liver microsomes was ≤ 4.74 mL/min/kg; the intrinsic clearance, rat liver microsomes is 76.8 mL/min/kg.
